Results on 31 compounds are retold here after patent US8569336B2, “Compounds for the treatment of inflammatory disorders” (priority 2008, dated 2013).

Read-outs that look alike come from different tables or passages of the source.

The subject of data set [1] is TNF-α production from human whole blood. Nature of the data set: Inhibition of TNF-α production from human whole blood (hWBA), LPS stimulated, ELISA. As to conditions: human whole blood diluted 1:1, LPS stimulated, TNF-α by ELISA, read-out: hWBA (IC50). It is filed as cell-based. A general note: In an ELISA, binding on a coated surface is turned into a signal by an enzyme label.

Data set [2] concerns the target T1, purified catalytic domain of recombinant human TACE (rhTACEc) (Homo sapiens, UniProt P78536, N452Q/S266A).
T1 construct: 6xHis (C); made in house; host or cells: baculovirus/Hi5 insect cells
Description: TACE kinetic assay: cleavage of internally quenched peptide substrate TNF-FRET 2 (Ki). It is filed as biochemical. The settings on record: TNF-FRET 2 substrate.

Data set [3] can be described thus: Area under the curve determinations of plasma levels in rats (rrAUC), oral 10 mg/kg. It is filed as in vivo. The settings on record: for AUC: rat, read-out: RR AUC (rapid rat AUC, rrAUC).
Setting [4] is: plasma, blood collected 0.5-6 h post-dosing.
The mark [5] stands for this setting: blood collected 0.5-6 h post-dosing.

T1 sequence (P78536 215-477 S266A/N452Q): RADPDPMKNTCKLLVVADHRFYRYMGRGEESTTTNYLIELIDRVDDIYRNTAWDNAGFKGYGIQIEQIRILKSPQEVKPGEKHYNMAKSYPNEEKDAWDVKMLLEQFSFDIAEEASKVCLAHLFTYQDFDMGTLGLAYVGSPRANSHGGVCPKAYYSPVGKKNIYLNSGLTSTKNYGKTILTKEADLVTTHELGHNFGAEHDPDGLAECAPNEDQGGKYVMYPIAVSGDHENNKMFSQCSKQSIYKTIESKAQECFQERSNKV

For the compound `COc1ccc2c(c1F)C(=O)N(C[C@@]1(c3cc4ccncc4o3)NC(=O)NC1=O)C2` [Compound 2272], in data set [1] (Homo sapiens, 3.5 h, 3.5 h), the concentration for half-maximal inhibition (IC50) (usually the concentration that gives 50% inhibition) was 167 nM. In addition, the Ki (as a rule, the equilibrium dissociation constant of an inhibitor or competing ligand from its target) in data set [2] (read-out: Ki) is 0.3 nM. Moreover, in data set [3] (plasma 0.5-6 h post-dosing), the AUC (usually concentration integrated over time) worked out at 2.79 µM·h.
`COc1ccc2c(c1)C(=O)N(C[C@@]1(c3cc4c(C5=NCCN5)nccc4o3)NC(=O)NC1=O)C2` [Compound 2274]: the IC50 in data set [1] (Homo sapiens, 3.5 h, 3.5 h) was determined as 2240 nM. In addition, in data set [2] (read-out: Ki), the Ki was 2 nM. The AUC in data set [3] (plasma 0.5-6 h post-dosing) worked out at 0.033 µM·h.
As to `COc1ccc2c(c1F)C(=O)N(C[C@@]1(c3cc4cc(F)cnc4o3)NC(=O)NC1=O)C2` [Compound 2277], the IC50 in data set [1] (Homo sapiens, 3.5 h, 3.5 h) came out at 499 nM. For the same compound, the Ki in data set [2] (Ki) was determined as 0.505 nM. Also, in data set [3] (plasma 0.5-6 h post-dosing), the AUC amounted to 26.2 µM·h.
In the case of `COc1ccc2c(c1)C(=O)N(C[C@@]1(c3cc4c(Cl)nccc4o3)NC(=O)NC1=O)C2` [Compound 2278], the IC50 in data set [1] (Homo sapiens, 3.5 h, 3.5 h) is 260 nM. Further, in data set [2] (read-out: Ki), the Ki was 0.637 nM. Further, the AUC in data set [3] (plasma 0.5-6 h post-dosing) amounted to 12.1 µM·h.
`COc1ccc2c(c1)C(=O)N(C[C@@]1(c3cc4c(N5CCOCC5)nccc4o3)NC(=O)NC1=O)C2` [Compound 2281]: the 50% inhibitory concentration (IC50) in data set [1] (Homo sapiens) was 510 nM. In data set [2] (read-out: Ki), the Ki is 0.458 nM. Moreover, the AUC in data set [3] (setting [4]) turned out to be 0.749 µM·h.
The matching figures for `COc1ccc2c(c1)C(=O)N(C[C@@]1(c3cc4c(C)nccc4o3)NC(=O)NC1=O)C2` [Compound 2284]: 198 nM, 0.5 nM and 2.8 µM·h.
The corresponding values for `COc1ccc2c(c1)C(=O)N(C[C@@]1(c3cc4cnc(Cl)cc4o3)NC(=O)NC1=O)C2` [Compound 2285] are 368 nM, 0.44 nM and 22.2 µM·h.
The corresponding values for `COc1ccc2c(c1)C(=O)N(C[C@@]1(c3cc4cnc(-c5cn[nH]c5)cc4o3)NC(=O)NC1=O)C2` [Compound 2286] are 184 nM, 0.566 nM and 0.046 µM·h.
As to `CCc1nccc2oc([C@]3(CN4Cc5ccc(OC)cc5C4=O)NC(=O)NC3=O)cc12` [Compound 2289], the concentration for half-maximal inhibition (IC50) in data set [1] (Homo sapiens) stood at 358 nM. Besides, the inhibitory constant (Ki) in data set [2] (read-out: Ki) was 0.25 nM. Besides, the AUC in data set [3] (setting [4]) is 3.56 µM·h.
The matching figures for `CCc1cc2oc([C@]3(CN4Cc5ccc(OC)cc5C4=O)NC(=O)NC3=O)cc2cn1` [Compound 2290]: 643 nM, 0.264 nM and 20.3 µM·h.
Turning to `COc1ccc2c(c1)C(=O)N(C[C@@]1(c3cc4c(N5CCCC5=O)nccc4o3)NC(=O)NC1=O)C2` [Compound 2293], the IC50 in data set [1] (Homo sapiens) is 531 nM. Besides, the Ki in data set [2] (read-out: Ki) was found to be 1.26 nM. Besides, the AUC in data set [3] (setting [4]) came out at 0.219 µM·h.
Take `COc1ccc2c(c1)C(=O)N(C[C@@]1(c3cc4c(C(C)O)nccc4o3)NC(=O)NC1=O)C2` (stereo partly drawn) [Compound 2294]: the IC50 in data set [1] (Homo sapiens) was found to be 323 nM. Moreover, the Ki in data set [2] (read-out: Ki) came out at 0.553 nM. In data set [3] (setting [4]), the AUC was 0.154 µM·h.
On to `COc1ccc2c(c1)C(=O)N(C[C@@]1(c3cc4cc(NC(C)=O)cnc4o3)NC(=O)NC1=O)C2` [Compound 2295], for which the half-inhibitory concentration (IC50) in data set [1] (Homo sapiens) amounted to 222 nM. Further, the Ki in data set [2] (read-out: Ki) was 1.31 nM. In addition, in data set [3] (setting [4]), the AUC was 0.044 µM·h.
On to `COc1ccc2c(c1)C(=O)N(C[C@@]1(c3cc4cc(Cl)ncc4o3)NC(=O)NC1=O)C2` [Compound 2300], for which the IC50 in data set [1] (Homo sapiens) is 902 nM. Moreover, the Ki in data set [2] (read-out: Ki) is 0.49 nM. The area under the curve (AUC) in data set [3] (setting [4]) is 22.7 µM·h.
The corresponding values for `COc1ccc2c(c1)C(=O)N(C[C@@]1(c3cc4cc(F)ncc4o3)NC(=O)NC1=O)C2` [Compound 2304] are 419 nM, 0.276 nM and 9.31 µM·h.
The corresponding values for `COc1ccc2c(c1)C(=O)N(C[C@@]1(c3cc4c(OC)nccc4o3)NC(=O)NC1=O)C2` [Compound 2307] are 604 nM, 0.437 nM and 41.4 µM·h.
`COc1ccc2c(c1)C(=O)N(C[C@@]1(c3cc4cnc(C)nc4o3)NC(=O)NC1=O)C2` [Compound 2309]: the concentration for half-maximal inhibition (IC50) in data set [1] (Homo sapiens) was found to be 624 nM. The Ki in data set [2] (read-out: Ki) came to 0.594 nM. Besides, the area under the curve (AUC) in data set [3] (setting [4]) is 18 µM·h.
The corresponding values for `COc1ccc2c(c1F)C(=O)N(C[C@@]1(c3cc4cnccc4o3)NC(=O)NC1=O)C2` [Compound 2310] are 197 nM, 0.37 nM and 2.31 µM·h.
For `COc1ccc2c(c1)C(=O)N(C[C@@]1(c3cc4nc(N)ccc4o3)NC(=O)NC1=O)C2` [Compound 2314], in data set [1] (Homo sapiens), the IC50 was found to be 187 nM. In data set [2] (Ki), the Ki amounted to 0.511 nM. Moreover, the “RR AUC (rapid rat AUC, rrAUC)” value in data set [3] (setting [5]) is 0.424 µM·h.
Take `COc1ccc2c(c1)C(=O)N(C[C@@]1(c3cc4nc(NS(=O)(=O)C5CC5)ccc4o3)NC(=O)NC1=O)C2` [Compound 2318]: the half-maximal inhibitory concentration (IC50) in data set [1] (Homo sapiens) is 518 nM. Moreover, the Ki in data set [2] (read-out: Ki) was found to be 0.579 nM. For the same compound, the “RR AUC (rapid rat AUC, rrAUC)” value in data set [3] (setting [5]) was determined as 0.015 µM·h.
For the compound `COc1ccc2c(c1)C(=O)N(C[C@@]1(c3cc4nc(N5CCN(C(C)=O)CC5)ccc4o3)NC(=O)NC1=O)C2` [Compound 2400], the IC50 in data set [1] (Homo sapiens) turned out to be 280 nM. Moreover, the Ki in data set [2] (read-out: Ki) worked out at 0.585 nM. In addition, in data set [3] (setting [4]), the AUC was found to be 0.439 µM·h.
Take `COc1ccc2c(c1)C(=O)N(C[C@@]1(c3cc4c(C(N)=O)nccc4o3)NC(=O)NC1=O)C2` [Compound 2401]: the IC50 in data set [1] (Homo sapiens) is 270 nM. For the same compound, in data set [2] (read-out: Ki), the Ki was 0.58 nM. In data set [3] (setting [4]), the AUC was 1.43 µM·h.
For `COc1ccc2c(c1)C(=O)N(C[C@@]1(c3cc4ccc(C(=O)NCCN(C)C)cc4o3)NC(=O)NC1=O)C2` [Compound 2412], in data set [1] (Homo sapiens), the IC50 stood at 115 nM. Further, the Ki in data set [2] (read-out: Ki) turned out to be 0.32 nM. In addition, in data set [3] (setting [4]), the AUC came to 0.104 µM·h.
The matching figures for `COc1ccc2c(c1)C(=O)N(C[C@@]1(c3cc4cc(C5(C(N)=O)CC5)ccc4o3)NC(=O)NC1=O)C2` [Compound 2421]: 886 nM, 0.38 nM and 0.037 µM·h.
As to `COc1ccc2c(c1)C(=O)N(C[C@@]1(c3cc4ccc(C(=O)N5CCNCC5)cc4o3)NC(=O)NC1=O)C2` [Compound 2424], the IC50 in data set [1] (Homo sapiens) came to 702 nM. In addition, the Ki in data set [2] (read-out: Ki) came to 0.98 nM. Besides, the AUC in data set [3] (setting [4]) is 0.013 µM·h.
Turning to `COc1ccc2c(c1)C(=O)N(C[C@@]1(c3cc4cc(C(=O)N5CCN(C)CC5)ccc4o3)NC(=O)NC1=O)C2` [Compound 2426], the IC50 in data set [1] (Homo sapiens) was found to be 850 nM. Besides, the Ki in data set [2] (Ki) stood at 1.26 nM. In addition, in data set [3] (setting [4]), the exposure (AUC) is 0.057 µM·h.
For `COc1ccc2c(c1)C(=O)N(C[C@@]1(c3cc4cnc(-c5cccc(C#N)c5)cc4o3)NC(=O)NC1=O)C2` [Compound 2431], the IC50 in data set [1] came to 8420 nM. Further, in data set [2] (read-out: Ki), the Ki is 0.8 nM. The “RR AUC (rapid rat AUC, rrAUC)” value in data set [3] (setting [5]) stood at 10.648 µM·h.
Consider `COc1ccc2c(c1)C(=O)N(C[C@@]1(c3cc4cc(C(=NO)N5CCN(C6CC6)CC5)ccc4o3)NC(=O)NC1=O)C2` [Compound 2455], for which the IC50 in data set [1] (Homo sapiens) was determined as 885 nM. In data set [2] (read-out: Ki), the Ki came to 0.58 nM. Moreover, the AUC in data set [3] (setting [4]) was found to be 0.013 µM·h.
The corresponding values for `CNC(=O)c1ccc2oc([C@]3(CN4Cc5ccc(OC)cc5C4=O)NC(=O)NC3=O)cc2n1` [Compound 2462] are 280 nM, 0.859 nM and 1.07 µM·h.
On to `COc1ccc2c(c1)C(=O)N(C[C@@]1(c3cc4nc(-c5cccc(C#N)c5)ccc4o3)NC(=O)NC1=O)C2` [Compound 2470], for which the 50% inhibitory concentration (IC50) in data set [1] (Homo sapiens) turned out to be 803 nM. Further, the Ki in data set [2] (read-out: Ki) was 0.578 nM. The AUC in data set [3] (setting [4]) turned out to be 22.1 µM·h.
As to `COc1ccc2c(c1)C(=O)N(C[C@@]1(c3cc4nc(-c5ccc(C#N)nc5)ccc4o3)NC(=O)NC1=O)C2` [Compound 2472], in data set [1] (Homo sapiens), the half-inhibitory concentration (IC50) was found to be 1610 nM. In addition, in data set [2] (read-out: Ki), the Ki came out at 0.745 nM. The AUC in data set [3] (setting [4]) is 0.536 µM·h.
